# Target: T1, KRAS (G12D)-HiBit in AsPc-1-KRAS (G12D)-HiBit-KI cell (Homo sapiens, UniProt P01116, G12D)
# T1 construct: host or cells: AsPc-1-KRAS (G12D)-HiBit-KI cells (knock-in line)
# Assay: G12D HiBit assay
# Assay type: cell-based
# Conditions: 24 hours compound treatment, absolute DC50, read-out: Average PHA DC50
# How it was run: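 AsPc-1 cells with HiBiT knocked into KRAS G12D, seeded at 5×10^3/well and held overnight, then treated 24 h with 10-point 3-fold dilutions (300 nM to 0.015 nM). Lytic Nano-Glo HiBiT luminescence expressed as % of 0.1% DMSO control; absolute DC50 from curve fit.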
# T1 sequence (P01116 1-188 isoform P01116-2 G12D): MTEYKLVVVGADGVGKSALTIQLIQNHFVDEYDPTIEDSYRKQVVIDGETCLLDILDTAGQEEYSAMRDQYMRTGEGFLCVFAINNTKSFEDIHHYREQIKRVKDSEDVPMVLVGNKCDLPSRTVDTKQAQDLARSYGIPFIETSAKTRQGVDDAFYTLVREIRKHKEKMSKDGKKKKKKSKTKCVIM
row,DC50 [µM],Compound
1,≥ 0.3,"C#Cc1c(F)ccc2cccc(-c3ncc4c(N5CC6CCC(C5)N6)nc(OC[C@@]56CCCN5[C@H](COC(=O)N5CC7(CCN(c8cccc9c8n(C)c(=O)n9C8CCC(=O)NC8=O)CC7)C5)CC6)nc4c3F)c12 (stereo partly drawn) [Compound 121, [(3S,8S)-8-[[4-(3,8-Diazabicyclo[3.2.1]octan-3-yl)-7-(8-ethynyl-7-fluoro-1-naphthyl)-8-fluoro-pyrido[4,3-d]pyrimidin-2-yl]oxymethyl]-1,2,3,5,6,7-hexahydropyrrolizin-3-yl]methyl 7-[1-(2,6-dioxo-3-piperidyl)-3-methyl-2-oxo-benzimidazol-4-yl]-2,7-diazaspiro[3.5]nonane-2-carboxylate]"
2,≥ 0.3,"C#Cc1c(F)ccc2cccc(-c3ncc4c(N5CC6CCC(C5)N6)nc(OC[C@@]56CCCN5[C@H](COC(=O)NCCOCCN5CCN(c7cccc8c7n(C)c(=O)n8C7CCC(=O)NC7=O)CC5)CC6)nc4c3F)c12 (stereo partly drawn) [Compound 123, [(3S,8S)-8-[[4-(3,8-diazabicyclo[3.2.1]octan-3-yl)-7-(8-ethynyl-7-fluoro-1-naphthyl)-8-fluoro-pyrido[4,3-d]pyrimidin-2-yl]oxymethyl]-1,2,3,5,6,7-hexahydropyrrolizin-3-yl]methyl N-[2-[2-[4-[1-(2,6-dioxo-3-piperidyl)-3-methyl-2-oxo-benzimidazol-4-yl]piperazin-1-yl]ethoxy]ethyl]carbamate]"
3,< 0.1,"C#Cc1c(F)ccc2cccc(-c3ncc4c(N5CC6CCC(C5)N6)nc(OC[C@@]56CCCN5[C@H](COC(=O)N5CCC7(CC5)CC(CCc5cccc8c5n(C)c(=O)n8C5CCC(=O)NC5=O)C7)CC6)nc4c3F)c12 (stereo partly drawn) [Compound 124, [(3S,8S)-8-[[4-(3,8-Diazabicyclo[3.2.1]octan-3-yl)-7-(8-ethynyl-7-fluoro-1-naphthyl)-8-fluoro-pyrido[4,3-d]pyrimidin-2-yl]oxymethyl]-1,2,3,5,6,7-hexahydropyrrolizin-3-yl]methyl 2-[2-[1-(2,6-dioxo-3-piperidyl)-3-methyl-2-oxo-benzimidazol-4-yl]ethyl]-7-azaspiro[3.5]nonane-7-carboxylate]"
4,≥ 0.3,"C#Cc1c(F)ccc2cccc(-c3ncc4c(N5CC6CCC(C5)N6)nc(OC[C@@]56CCCN5[C@H](COC(=O)NC[C@@H]5CN(CC#Cc7cccc8c7n(C)c(=O)n8C7CCC(=O)NC7=O)CCO5)CC6)nc4c3F)c12 (stereo partly drawn) [Compound 125, [(3S,8S)-8-[[4-(3,8-Diazabicyclo[3.2.1]octan-3-yl)-7-(8-ethynyl-7-fluoro-1-naphthyl)-8-fluoro-pyrido[4,3-d]pyrimidin-2-yl]oxymethyl]-1,2,3,5,6,7-hexahydropyrrolizin-3-yl]methylN-[[(2R)-4-[3-[1-(2,6-dioxo-3-piperidyl)-3-methyl-2-oxo-benzimidazol-4-yl]prop-2-ynyl]morpholin-2-yl]methyl]carbamate]"
5,≥ 0.3,"C#Cc1c(F)ccc2cccc(-c3ncc4c(N5CC6CCC(C5)N6)nc(OC[C@@]56CCCN5[C@H](COC(=O)NC[C@@H]5CN(CCCc7cccc8c7n(C)c(=O)n8C7CCC(=O)NC7=O)CCO5)CC6)nc4c3F)c12 (stereo partly drawn) [Compound 126, [(3S,8S)-8-[[4-(3,8-Diazabicyclo[3.2.1]octan-3-yl)-7-(8-ethynyl-7-fluoro-1-naphthyl)-8-fluoro-pyrido[4,3-d]pyrimidin-2-yl]oxymethyl]-1,2,3,5,6,7-hexahydropyrrolizin-3-yl]methyl N-[[(2 R)-4-[3-[1-(2,6-dioxo-3-piperidyl)-3-methyl-2-oxo-benzimidazol-4-yl]propyl]morpholin-2-yl]methyl]carbamate]"
6,≥ 0.3,"C#Cc1c(F)ccc2cccc(-c3ncc4c(N5CC6CCC(C5)N6)nc(OC[C@@]56CCCN5[C@H](COC(=O)N5CCC(C7CCN(c8cccc9c8n(C)c(=O)n9C8CCC(=O)NC8=O)CC7)CC5)CC6)nc4c3F)c12 (stereo partly drawn) [Compound 127, [(3S,8S)-8-[[4-(3,8-Diazabicyclo[3.2.1]octan-3-yl)-7-(8-ethynyl-7-fluoro-1-naphthyl)-8-fluoro-pyrido[4,3-d]pyrimidin-2-yl]oxymethyl]-1,2,3,5,6,7-hexahydropyrrolizin-3-yl]methyl 4-[1-[1-(2,6-dioxo-3-piperidyl)-3-methyl-2-oxo-benzimidazol-4-yl]-4-piperidyl]piperidine-1-carboxylate]"
7,< 0.1,"C#Cc1c(F)ccc2cccc(-c3ncc4c(N5CC6CCC(C5)N6)nc(OC[C@@]56CCCN5[C@H](COC(=O)N5CCC(COC7CCN(Cc8cccc9c8n(C)c(=O)n9C8CCC(=O)NC8=O)CC7)CC5)CC6)nc4c3F)c12 (stereo partly drawn) [Compound 128, [(3S,8S)-8-[[4-(3,8-diazabicyclo[3.2.1]octan-3-yl)-7-(8-ethynyl-7-fluoro-1-naphthyl)-8-fluoro-pyrido[4,3-d]pyrimidin-2-yl]oxymethyl]-1,2,3,5,6,7-hexahydropyrrolizin-3-yl]methyl4-[[1-[[1-(2,6-dioxo-3-piperidyl)-3-methyl-2-oxo-benzimidazol-4-yl]methyl]-4-piperidyl]oxymethyl]piperidine-1-carboxylate]"
8,≥ 0.3,"C#Cc1c(F)ccc2cccc(-c3ncc4c(N5CC6CCC(C5)N6)nc(OC[C@@]56CCCN5[C@H](COC(=O)N5CCC7(CC5)CCN(c5cccc8c5n(C)c(=O)n8C5CCC(=O)NC5=O)CC7)CC6)nc4c3F)c12 (stereo partly drawn) [Compound 129, [(3S,8S)-8-[[4-(3,8-Diazabicyclo[3.2.1]octan-3-yl)-7-(8-ethynyl-7-fluoro-1-naphthyl)-8-fluoro-pyrido[4,3-d]pyrimidin-2-yl]oxymethyl]-1,2,3,5,6,7-hexahydropyrrolizin-3-yl]methyl9-[1-(2,6-dioxo-3-piperidyl)-3-methyl-2-oxo-benzimidazol-4-yl]-3,9-diazaspiro[5.5]undecane-3-carboxylate]"
9,< 0.1,"C#Cc1c(F)ccc2cccc(-c3ncc4c(N5CC6CCC(C5)N6)nc(OC[C@@]56CCCN5[C@H](COC(=O)N5CCC(OC7CCN(Cc8cccc9c8n(C)c(=O)n9C8CCC(=O)NC8=O)CC7)CC5)CC6)nc4c3F)c12 (stereo partly drawn) [Compound 130, [(3S,8S)-8-[[4-(3,8-Diazabicyclo[3.2.1]octan-3-yl)-7-(8-ethynyl-7-fluoro-1-naphthyl)-8-fluoro-pyrido[4,3-d]pyrimidin-2-yl]oxymethyl]-1,2,3,5,6,7-hexahydropyrrolizin-3-yl]methyl4-[[1-[[1-(2,6-dioxo-3-piperidyl)-3-methyl-2-oxo-benzimidazol-4-yl]methyl]-4-piperidyl]oxy]piperidine-1-carboxylate]"
10,≥ 0.3,"C#Cc1c(F)ccc2cccc(-c3ncc4c(N5CC6CCC(C5)N6)nc(OC[C@@]56CCCN5[C@H](COC(=O)N5CCC(N7CCN(c8cccc9c8n(C)c(=O)n9C8CCC(=O)NC8=O)CC7)CC5)CC6)nc4c3F)c12 (stereo partly drawn) [Compound 131, [(3S,8S)-8-[[4-(3,8-Diazabicyclo[3.2.1]octan-3-yl)-7-(8-ethynyl-7-fluoro-1-naphthyl)-8-fluoro-pyrido[4,3-d]pyrimidin-2-yl]oxymethyl]-1,2,3,5,6,7-hexahydropyrrolizin-3-yl]methyl4-[4-[1-(2,6-dioxo-3-piperidyl)-3-methyl-2-oxo-benzimidazol-4-yl]piperazin-1-yl]piperidine-1-carboxylate]"
11,< 0.1,"C#Cc1c(F)ccc2cccc(-c3ncc4c(N5C[C@H]6CC[C@@H](C5)N6)nc(OC[C@@]56CCCN5[C@H](COC(=O)N5CCC(CC7CCN(Cc8cccc9c8n(C)c(=O)n9C8CCC(=O)NC8=O)CC7)CC5)CC6)nc4c3F)c12 (stereo partly drawn) [Compound 132, ((3S,7aS)-7a-(((4-((1R,5S)-3,8-Diazabicyclo[3.2.1]octan-3-yl)-7-(8-ethynyl-7-fluoronaphthalen-1-yl)-8-fluoropyrido[4,3-d]pyrimidin-2-yl)oxy)methyl)hexahydro-1H-pyrrolizin-3-yl)methyl4-((1-((1-(2,6-dioxopiperidin-3-yl)-3-methyl-2-oxo-2,3-dihydro-1H-benzo[d]imidazol-4-yl)methyl)piperidin-4-yl)methyl)piperidine-1-carboxylate]"
12,≥ 0.3,"C#Cc1c(F)ccc2cccc(-c3ncc4c(N5CC6CCC(C5)N6)nc(OC[C@@]56CCCN5[C@H](COC(=O)N5CCC(OCCc7ccc8c(c7)n(C)c(=O)n8C7CCC(=O)NC7=O)CC5)CC6)nc4c3F)c12 (stereo partly drawn) [Compound 133, [(3S,8S)-8-[[4-(3,8-Diazabicyclo[3.2.1]octan-3-yl)-7-(8-ethynyl-7-fluoro-1-naphthyl)-8-fluoro-pyrido[4,3-d]pyrimidin-2-yl]oxymethyl]-1,2,3,5,6,7-hexahydropyrrolizin-3-yl]methyl 4-[2-[1-(2,6-dioxo-3-piperidyl)-3-methyl-2-oxo-benzimidazol-5-yl]ethoxy]piperidine-1-carboxylate]"
13,< 0.1,"C#Cc1c(F)ccc2cccc(-c3ncc4c(N5CC6CCC(C5)N6)nc(OC[C@@]56CCCN5[C@H](COC(=O)N(C)CCC5CCN(Cc7cccc8c7n(C)c(=O)n8C7CCC(=O)NC7=O)CC5)CC6)nc4c3F)c12 (stereo partly drawn) [Compound 134, [(3S,8S)-8-[[4-(3,8-diazabicyclo[3.2.1]octan-3-yl)-7-(8-ethynyl-7-fluoro-1-naphthyl)-8-fluoro-pyrido[4,3-d]pyrimidin-2-yl]oxymethyl]-1,2,3,5,6,7-hexahydropyrrolizin-3-yl]methyl N-[2-[1-[[1-(2,6-dioxo-3-piperidyl)-3-methyl-2-oxo-benzimidazol-4-yl]methyl]-4-piperidyl]ethyl]-N-methyl-carbamate]"

row,Compound,DC50 [µM]
1,"C#Cc1c(F)ccc2cccc(-c3ncc4c(N5CC6CCC(C5)N6)nc(OC[C@@]56CCCN5[C@H](COC(=O)N5CCC(OCCCCCc7cccc8c7n(C)c(=O)n8C7CCC(=O)NC7=O)CC5)CC6)nc4c3F)c12 (stereo partly drawn) [Compound 122, [(3S,8S)-8-[[4-(3,8-diazabicyclo[3.2.1]octan-3-yl)-7-(8-ethynyl-7-fluoro-1-naphthyl)-8-fluoro-pyrido[4,3-d]pyrimidin-2-yl]oxymethyl]-1,2,3,5,6,7-hexahydropyrrolizin-3-yl]methyl4-[5-[1-(2,6-dioxo-3-piperidyl)-3-methyl-2-oxo-benzimidazol-4-yl]pentoxy]piperidine-1-carboxylate]",< 0.1

# From patent publication US12404285B2, “KRAS G12D proteolysis targeting chimeras” (PAQ Therapeutics Inc., priority 2022, dated 2025)
